Laboratory results published in PubChem BioAssay (NCI).
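Briefly, cells in 96-well plates were exposed to five compound concentrations for 48 h, and endpoints were estimated by linear interpolation. Here, GI50 denotes the concentration required for 50% inhibition of growth. The concentration for full growth arrest is given as TGI.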

How the values were obtained:
Assay in all cases: NCI-60 cell line screen, 48 h
[1] = tested on: NCI-H226 lung
[2] = tested on: T-47D breast
[3] = tested on: MALME-3M melanoma
[4] = tested on: COLO 205 colon
[5] = tested on: SN12C renal
[6] = tested on: U251 CNS
[7] = tested on: DU-145 prostate
[8] = tested on: RPMI-8226 leukemia
[9] = tested on: SK-MEL-2 melanoma
[10] = tested on: OVCAR-4 ovarian
[11] = tested on: 786-0 renal
[12] = tested on: EKVX NSCLC
[13] = tested on: SK-MEL-28 melanoma
[14] = tested on: A549 NSCLC
[15] = tested on: HT29 colon
[16] = tested on: HCT-116 colon
[17] = tested on: IGROV1 ovarian
[18] = tested on: BT-549 breast
[19] = tested on: K-562 leukemia
[20] = tested on: MDA-MB-231 breast
[21] = tested on: MDA-MB-435
[22] = tested on: HCC-2998 colon
[23] = tested on: LOX IMVI melanoma
[24] = tested on: HCT-15 colon
[25] = tested on: OVCAR-5 ovarian
[26] = tested on: OVCAR-8 ovarian
[27] = tested on: KM12 colon
[28] = tested on: UO-31 renal
[29] = tested on: CAKI-1 renal
[30] = tested on: OVCAR-3 ovarian
[31] = tested on: NCI-H460 lung
[32] = tested on: NCI-H522 lung
[33] = tested on: SK-MEL-5 melanoma
[34] = tested on: SF-295 CNS
[35] = tested on: SF-539 CNS
[36] = tested on: SNB-19 CNS
[37] = tested on: SF-268 CNS
[38] = tested on: UACC-257 melanoma
[39] = tested on: A498 renal
[40] = tested on: SW-620 colon
[41] = tested on: TK-10 renal
[42] = tested on: ACHN renal
[43] = tested on: PC-3 prostate
[44] = tested on: SK-OV-3 ovarian
[45] = tested on: NCI-H23 lung
[46] = tested on: NCI/ADR-RES ovarian
[47] = tested on: HS 578T breast
[48] = tested on: CCRF-CEM leukemia
[49] = tested on: UACC-62 melanoma
[50] = tested on: RXF 393 renal
[51] = tested on: HOP-92 NSCLC
[52] = tested on: MOLT-4 leukemia
[53] = tested on: HOP-62 NSCLC
[54] = tested on: MCF7 breast
[55] = tested on: M14 melanoma
[56] = tested on: SNB-75 CNS

With `COc1ccc(-c2nnc(Nc3nc(O)c(C4=c5cc(F)ccc5=NC4=O)s3)o2)cc1` the GI50 [1] was 46.3 µM, the TGI [1] was greater than 100 µM and the GI50 [2] was 93.2 µM. The TGI [2] was greater than 100 µM, the GI50 [3] was 34.5 µM and the TGI [3] was greater than 100 µM. The GI50 [4] was 68.2 µM, the TGI [4] was greater than 100 µM and the GI50 [5] was 47 µM. For the same molecule, the TGI [5] was greater than 100 µM, the GI50 [6] was 25.3 µM and the TGI [6] was 61.2 µM. It also gave a GI50 [7] of 46.9 µM, a TGI [7] greater than 100 µM and a GI50 [8] of 59.1 µM. The TGI [8] was greater than 100 µM, the GI50 [9] was 33.7 µM and the TGI [9] was greater than 100 µM. For the same molecule, the GI50 [10] was 39.7 µM, the TGI [10] was greater than 100 µM and the GI50 [11] was 23.4 µM. For the same molecule, the TGI [11] was 56.3 µM, the GI50 [12] was 96.1 µM and the TGI [12] was greater than 100 µM. It also gave a GI50 [13] greater than 100 µM, a TGI [13] greater than 100 µM and a GI50 [14] of 64.6 µM. It also gave a TGI [14] greater than 100 µM, a GI50 [15] of 40.5 µM and a TGI [15] greater than 100 µM. It also gave a GI50 [16] of 20 µM, a TGI [16] of 42.7 µM and a GI50 [17] of 14.3 µM. For the same molecule, the TGI [17] was 51.4 µM, the GI50 [18] was 36.5 µM and the TGI [18] was greater than 100 µM. It also gave a GI50 [19] of 37.1 µM, a TGI [19] greater than 100 µM and a GI50 [20] of 19.8 µM. For the same molecule, the TGI [20] was 52.2 µM, the GI50 [21] was 36.2 µM and the TGI [21] was greater than 100 µM. It also gave a GI50 [22] of 84.3 µM, a TGI [22] greater than 100 µM and a GI50 [23] of 40 µM. For the same molecule, the TGI [23] was greater than 100 µM, the GI50 [24] was 44.7 µM and the TGI [24] was greater than 100 µM. It also gave a GI50 [25] greater than 100 µM, a TGI [25] greater than 100 µM and a GI50 [26] of 54.4 µM. It also gave a TGI [26] greater than 100 µM, a GI50 [27] of 43.1 µM and a TGI [27] greater than 100 µM. For the same molecule, the GI50 [28] was 37.9 µM, the TGI [28] was greater than 100 µM and the GI50 [29] was 28.8 µM. It also gave a TGI [29] of 99.3 µM, a GI50 [30] of 14.8 µM and a TGI [30] of 42.3 µM. It also gave a GI50 [31] of 34.2 µM, a TGI [31] greater than 100 µM and a GI50 [32] of 33.9 µM. The TGI [32] was greater than 100 µM, the GI50 [33] was 28.7 µM and the TGI [33] was greater than 100 µM. It also gave a GI50 [34] of 29.5 µM, a TGI [34] greater than 100 µM and a GI50 [35] of 80.9 µM. For the same molecule, the TGI [35] was greater than 100 µM, the GI50 [36] was 48.2 µM and the TGI [36] was greater than 100 µM. The GI50 [37] was 67.7 µM, the TGI [37] was greater than 100 µM and the GI50 [38] was greater than 100 µM. The TGI [38] was greater than 100 µM, the GI50 [39] was 41.7 µM and the TGI [39] was greater than 100 µM. For the same molecule, the GI50 [40] was 47.6 µM, the TGI [40] was greater than 100 µM and the GI50 [41] was 56.3 µM. It also gave a TGI [41] greater than 100 µM, a GI50 [42] of 35.3 µM and a TGI [42] greater than 100 µM. For the same molecule, the GI50 [43] was 32.4 µM, the TGI [43] was greater than 100 µM and the GI50 [44] was greater than 100 µM. The TGI [44] was greater than 100 µM, the GI50 [45] was 67.7 µM and the TGI [45] was greater than 100 µM. For the same molecule, the GI50 [46] was 49.7 µM, the TGI [46] was greater than 100 µM and the GI50 [47] was 69.1 µM. For the same molecule, the TGI [47] was greater than 100 µM, the GI50 [48] was 28.8 µM and the TGI [48] was greater than 100 µM. The GI50 [49] was 35.1 µM, the TGI [49] was greater than 100 µM and the GI50 [50] was 65.8 µM. For the same molecule, the TGI [50] was greater than 100 µM, the GI50 [51] was 87 µM and the TGI [51] was greater than 100 µM. The GI50 [52] was 30.4 µM, the TGI [52] was greater than 100 µM and the GI50 [53] was 18.2 µM. It also gave a TGI [53] of 43.7 µM, a GI50 [54] of 34.5 µM and a TGI [54] greater than 100 µM.

With `O=S(=O)(O)c1ccccc1N=Nc1ccc(N=Nc2c(O)ccc3ccccc23)c(S(=O)(=O)O)c1` the TGI [1] was greater than 100 µM, the TGI [2] was greater than 100 µM and the TGI [3] was greater than 100 µM. For the same molecule, the TGI [4] was greater than 100 µM, the TGI [5] was greater than 100 µM and the TGI [6] was greater than 100 µM. The TGI [55] was greater than 100 µM, the TGI [7] was greater than 100 µM and the TGI [8] was greater than 100 µM. The TGI [9] was greater than 100 µM, the TGI [10] was greater than 100 µM and the TGI [11] was greater than 100 µM. It also gave a TGI [12] greater than 100 µM, a TGI [13] greater than 100 µM and a TGI [14] greater than 100 µM. For the same molecule, the TGI [15] was greater than 100 µM, the TGI [16] was greater than 100 µM and the TGI [17] was greater than 100 µM. For the same molecule, the TGI [56] was greater than 100 µM, the TGI [18] was greater than 100 µM and the TGI [19] was greater than 100 µM. It also gave a TGI [20] greater than 100 µM, a TGI [21] greater than 100 µM and a TGI [24] greater than 100 µM. It also gave a TGI [25] greater than 100 µM, a TGI [26] greater than 100 µM and a TGI [27] greater than 100 µM. The TGI [28] was greater than 100 µM, the TGI [29] was greater than 100 µM and the TGI [30] was greater than 100 µM. The TGI [32] was greater than 100 µM, the TGI [33] was greater than 100 µM and the TGI [34] was greater than 100 µM. For the same molecule, the TGI [36] was greater than 100 µM, the TGI [37] was greater than 100 µM and the TGI [38] was greater than 100 µM. For the same molecule, the TGI [40] was greater than 100 µM, the TGI [41] was greater than 100 µM and the TGI [42] was greater than 100 µM. The TGI [43] was greater than 100 µM, the TGI [44] was greater than 100 µM and the TGI [45] was greater than 100 µM. It also gave a TGI [46] greater than 100 µM, a TGI [47] greater than 100 µM and a TGI [48] greater than 100 µM. It also gave a TGI [49] greater than 100 µM, a TGI [50] greater than 100 µM and a TGI [51] greater than 100 µM. The TGI [52] was greater than 100 µM and the TGI [53] was greater than 100 µM.
